# Test results taken from the NIST ThermoML archive (doi:10.1021/je700206y).
# ± gives the expanded uncertainty stated by the source.
# Columns and labels:
# [1] = refractive index (Na D-line) (dimensionless); settings: 293.2 K; 101.33 kPa; Liquid; Standard Abbe refractometry
# [2] = Liquid; for mass density: 293.2 K, 101.33 kPa; for Normal boiling temperature: Distillation
# [3] = Boiling temperature at pressure P; settings: 1.733 kPa; Liquid; Distillation
SMILES,refractive index [1],mass density [2] [kg/m3],Normal boiling temperature [2] [°C],Boiling temperature at pressure P [3] [°C]
"COC(=O)CCC(=O)OC [dimethyl 1,4-butanedioate]",1.41969 ± 0.00078,1119.13 ± 1.6,196.1 ± 0.2,–
"COC(=O)CCCCC(=O)OC [dimethyl 1,6-hexanedioate]",1.42825 ± 0.0007,1061.72 ± 0.56,–,115 ± 1
COC(=O)CCCC(=O)OC [dimethyl pentanedioate],1.42454 ± 0.0007,1087.67 ± 0.63,214.2 ± 0.2,–
O=CO [formic acid],1.37144 ± 0.0007,1220.04 ± 1,101.2 ± 0.2,–
